The values below come from paper PMC3921447, “Homologous and heterologous desensitization of guanylyl cyclase-B signaling in GH3 somatolactotropes” (Cell and Tissue Research, 2013).

Test [1] has as its target T1, GC-B (Rattus norvegicus, UniProt P16067).
T1 construct: rapid homologous desensitization of endogenous GC-B receptors in GH3 cells; endogenous in cells; host or cells: GH3 rat somatolactotrope cells
T1 sequence (P16067 17-1047): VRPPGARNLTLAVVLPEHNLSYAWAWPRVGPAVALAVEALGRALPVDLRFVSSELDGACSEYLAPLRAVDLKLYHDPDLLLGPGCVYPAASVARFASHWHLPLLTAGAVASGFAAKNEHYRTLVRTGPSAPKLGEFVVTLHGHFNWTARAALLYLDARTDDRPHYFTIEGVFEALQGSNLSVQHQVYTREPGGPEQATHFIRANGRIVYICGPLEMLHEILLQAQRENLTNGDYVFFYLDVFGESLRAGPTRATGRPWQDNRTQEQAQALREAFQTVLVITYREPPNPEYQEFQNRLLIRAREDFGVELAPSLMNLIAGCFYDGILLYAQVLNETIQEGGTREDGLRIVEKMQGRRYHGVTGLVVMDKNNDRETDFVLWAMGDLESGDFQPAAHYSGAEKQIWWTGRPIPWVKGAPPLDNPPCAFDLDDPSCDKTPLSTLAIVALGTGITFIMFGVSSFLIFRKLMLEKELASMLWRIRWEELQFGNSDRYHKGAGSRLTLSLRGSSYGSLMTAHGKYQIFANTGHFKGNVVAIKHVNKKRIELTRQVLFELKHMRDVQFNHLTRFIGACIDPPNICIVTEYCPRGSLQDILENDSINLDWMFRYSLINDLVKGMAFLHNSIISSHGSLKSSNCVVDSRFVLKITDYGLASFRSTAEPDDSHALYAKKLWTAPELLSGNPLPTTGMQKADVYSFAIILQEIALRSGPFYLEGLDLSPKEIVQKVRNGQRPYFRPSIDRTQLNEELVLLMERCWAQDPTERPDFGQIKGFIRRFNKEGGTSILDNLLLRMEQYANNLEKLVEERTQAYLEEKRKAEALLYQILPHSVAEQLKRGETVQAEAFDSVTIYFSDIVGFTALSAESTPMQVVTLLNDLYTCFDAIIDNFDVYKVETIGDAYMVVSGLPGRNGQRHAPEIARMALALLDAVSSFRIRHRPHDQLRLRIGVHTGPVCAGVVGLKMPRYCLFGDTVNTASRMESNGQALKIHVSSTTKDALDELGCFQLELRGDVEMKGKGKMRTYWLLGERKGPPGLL
The test can be described thus: Agonist-induced GC-B internalization by confocal immunofluorescence in GH3 cells. It counts as cell-based. The note with it: 100 nM CNP, 0-4 h; n = 3; Fig. 5a-c. The protocol: GH3 cells were mounted on poly-L-lysine-coated coverslips and treated with either 0 or 100nM ANP or CNP in PSS during the indicated time points. Following treatment, cells were fixed with 4 % (w/v) formaldehyde for 10 min at room temperature and permeabilized with buffer (1 % [v/v] Tween-20 in 50 ml phosphate-buffered saline [PBS]) before incubation for 10 min at room temperature. Cells were then blocked with […] sodium azide dissolved in 92 % PBS, 3 % FCS and 5 % Tween-20 (v/v) for 20 min at room temperature, washed, then exposed to 1:200 diluted primary antibody solution (GC-A or GC-B, plus 0.1 % FCS and 0.1 % Tween-20) for 16 h at 4 °C. […] Following three PBS washes and a final 5-min PBS immersion at room temperature, the slides were mounted in Vectorshield (Vector Laboratories, Peterborough, UK) on standard VWR (VWR International, Leicestershire, UK) slides ready for analysis. A Leica SPS confocal scanning laser microscope was used to capture the staining, which was analyzed with Leica SPS software (Leica Microsystems, Milton Keynes, UK). […]
Fig. 5 Lack of ligand-dependent internalization of GC-B or GC-A in GH3 somatolactotrope cells. […] GC-A and GC-B immunoreactivity was detected by using Alexa488-conjugated secondary antibodies (green), whereas Alexa635-conjugated phalloidin was used to detect the actin cytoskeleton (red). […]

The target of test [2] is T1, GC-B. The experiment in a line: GC-B protein expression by Western blot in GH3 cells. It counts as cell-based. The note with it: 100 nM CNP, up to 24 h; n = 3; Fig. 4b. The protocol: GH3 cell lysates (from 1 × 10^6 cells) were prepared in lysis buffer (0.5 M TRIS pH 6.8, 10 % [v/v] glycerol, 1 % [w/v] SDS). Protein lysates were sonicated, boiled at 95 °C for 5 min, resolved by 10 % SDS-polyacrylamide gel electrophoresis, transferred to polyvivylidene difluoride membrane and probed for GC-B (1:2000 dilution) or β-actin (1:5000 dilution) expression. Appropriate horseradish-peroxidase-conjugated secondary antibodies were purchased from DAKO.
We next examined whether Npr2 or GC-B down-regulation (as determined by a reduction in Npr2 mRNA expression and or GC-B protein expression) mediated the inhibitory effects of sustained CNP exposure. The effect of CNP exposure on the expression of the endogenous Npr2 gene was examined by using qPCR. […] To establish whether down-regulation occurred at the protein level, total proteins were extracted from GH3 cells incubated for up to 24 h with 100 nM CNP.
Fig. 4 CNP fails to alter expression of Npr2 mRNA or GC-B protein in GH3 somatolactotrope cells. a GH3 cells were stimulated with 0 or 100 nM CNP for 24 h prior to extraction of total RNA, cDNA synthesis, and quantitative PCR for endogenous Npr2 expression. […] Blots were stripped and re-probed for β-actin. Panels are representative of three independent experiments (n = 3)
On the technique in general: A western blot detects proteins with antibodies after separation by electrophoresis.

Turning to `CC[C@H](C)[C@@H]1NC(=O)[C@H](CCCNC(=N)N)NC(=O)[C@H](CC(=O)O)NC(=O)[C@H](CC(C)C)NC(=O)[C@H](CCCCN)NC(=O)[C@H](CC(C)C)NC(=O)CNC(=O)[C@H](Cc2ccccc2)NC(=O)[C@@H](NC(=O)CNC(=O)[C@H](CCCCN)NC(=O)[C@H](CO)NC(=O)[C@H](CC(C)C)NC(=O)CN)CSSC[C@@H](C(=O)O)NC(=O)CNC(=O)[C@H](CC(C)C)NC(=O)CNC(=O)[C@H](CO)NC(=O)[C@H](CCSC)NC(=O)[C@H](CO)NC(=O)CNC1=O` [CNP, C-type natriuretic peptide], the GC-B internalization result on GC-B [1] is recorded as “did not demonstrate any observable GC-B or GC-A internalization”. In addition, the GC-B protein expression result on GC-B [2] was “failed to alter expression levels”.
